Measurements published in patent publication US12240844B2 (Voronoi, Inc., priority 2019, dated 2025).

Legend:
[1] = molecular target: T1, LRRK2, LRRK2 (G2019S), DYRK1, CLK1 and TTK kinases (Homo sapiens, UniProt Q13627); test: Enzyme IC50 by Kinase HotSpot service (Reaction Biology Corporation), values marked with *; assay type: biochemical; settings: DYRK1, ATP 10 uM
T1 construct: other: DYRK1; Kinase HotSpot service (Reaction Biology), ATP 10 uM
Experimental: (§1) Meanwhile, the enzyme IC50 measurement for some compounds was performed using Kinase HotSpot service (Reaction Biology Corporation); during the test, the ATP concentration was 10 uM, where all were conducted under the same condition; and the concentration of the compound was measured by giving a 3-fold concentration gradient with the highest concentration of […], where the values measured using Kinase HotSpot service (Reaction Biology Corporation) were marked with “*”.
(§2) All experimental methods were performed as provided in Kinase HotSpot Customer Protocol (http://www.reactionbiology.com//Kinase_Assay_Protocol).
(§3) In the table below, the following designations were used for the evaluation of enzyme inhibitory ability.

[2] = molecular target: T2, LRRK2, LRRK2 (G2019S), DYRK1, CLK1 and TTK kinases (Homo sapiens, UniProt Q5S007); test: as above; assay type: biochemical; settings: LRRK2, ATP 10 uM
T2 construct: LRRK2 IC50 (marked with *); other: LRRK2; Kinase HotSpot service (Reaction Biology), ATP 10 uM
Experimental: as §1, §2, §3

[3] = molecular target: T3, LRRK2, LRRK2 (G2019S), DYRK1, CLK1 and TTK kinases (Homo sapiens, UniProt P49759); test: as above; assay type: biochemical; settings: CLK1, ATP 10 uM
T3 construct: CLK1 IC50 (marked with *); other: CLK1; Kinase HotSpot service (Reaction Biology), ATP 10 uM
Experimental: as §1, §2, §3

MDA-MB-231 cell line = test: MDA-MB-231 cancer cell proliferation inhibition (Cell Titer-Glo); assay type: cell-based; settings: Homo sapiens, MDA-MB-231 triple-negative breast cancer cell line, 72 hours
In short: (§4)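 GI50 comes from CellTiter-Glo luminescence, read 10 min after reagent addition at RT, following 72 h compound treatment. Eleven concentrations were used (⅓ steps, highest 10 μM final) on 2000 cells/well. MDA-MB-231 and MDA-MB-468 were grown in DMEM, SHP-77 in RPMI.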

LRRK2 (G2019S) = LRRK2 (G2019S) (Homo sapiens, UniProt Q5S007, G2019S); test: LRRK2 G2019S enzyme inhibition, ADP-Glo kinase assay; assay type: biochemical; set-up: purchased SignalChem L10-12GG
In short: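 Activity read as ADP-Glo luminescence, normalized to untreated solvent control, with IC50 (nM) fitted over 12 final compound levels (top 50 μM). Reaction: 2 h, 25° C, human LRRK2 G2019S 16 ng, ATP 25 μM, substrate 0.2 μg, in Tris-HCl pH 7.4 with MgCl2, BSA and DTT.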

human DYRK1A and Tau = test: Tau phosphorylation inhibition, ClariCELL Kinase Cell-Based Assay (Carnabio)
In short: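 HEK293 cells transiently expressing human DYRK1A and Tau were exposed to compound, then lysed. Released Tau was captured on plate and its phosphorylation quantified by ELISA with a phospho-Tau-specific antibody.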

SHP-77 = SHP-77 cancer cell proliferation inhibition (Cell Titer-Glo); assay type: cell-based; settings: Homo sapiens, SHP77, SHP-77 small cell lung cancer cell line, 72 hours
In short: as §4

LRRK2 = LRRK2 (Homo sapiens, UniProt Q5S007); test: LRRK2 enzyme inhibition, ADP-Glo kinase assay; assay type: biochemical; set-up: purchased Invitrogen PR8604B
In short: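 ADP-Glo luminescence read after 2 h at 25° C, 10 μM ATP, 25 ng purified human LRRK2 and […] substrate in Tris-HCl pH7.4 buffer with MgCl2, BSA, DTT. Twelve final concentrations, 50 μM down to 0.000001024 μM; IC50 (nM) from inhibition relative to untreated solvent control.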

human GST-CLK1 (129-end) = molecular target: T4, human GST-CLK1 (129-end) (Homo sapiens, UniProt P49759); test: GST-CLK1 enzyme inhibition, ADP-Glo kinase assay; assay type: biochemical; settings: ATP 10 uM
T4 construct: purified human GST-CLK1 (129-end, Signalchem) enzyme; GST; purchased Signalchem
In short: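 ADP formation was read by ADP-Glo luminescence after 1 h at 25° C with 3 ng human GST-CLK1 (129-end), substrate and 10 uM ATP in Tris pH 7.4 buffer containing MgCl2, BSA and DTT. Inhibition relative to untreated solvent control gave IC50 (nM), run in triplicate.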

TTK = molecular target: T5, TTK (Homo sapiens, UniProt P33981); test: TTK enzyme inhibition, ADP-Glo kinase assay; assay type: biochemical; set-up: purchased Signalchem T20-10G; settings: ATP 5 μM
T5 sequence (P33981 1-857): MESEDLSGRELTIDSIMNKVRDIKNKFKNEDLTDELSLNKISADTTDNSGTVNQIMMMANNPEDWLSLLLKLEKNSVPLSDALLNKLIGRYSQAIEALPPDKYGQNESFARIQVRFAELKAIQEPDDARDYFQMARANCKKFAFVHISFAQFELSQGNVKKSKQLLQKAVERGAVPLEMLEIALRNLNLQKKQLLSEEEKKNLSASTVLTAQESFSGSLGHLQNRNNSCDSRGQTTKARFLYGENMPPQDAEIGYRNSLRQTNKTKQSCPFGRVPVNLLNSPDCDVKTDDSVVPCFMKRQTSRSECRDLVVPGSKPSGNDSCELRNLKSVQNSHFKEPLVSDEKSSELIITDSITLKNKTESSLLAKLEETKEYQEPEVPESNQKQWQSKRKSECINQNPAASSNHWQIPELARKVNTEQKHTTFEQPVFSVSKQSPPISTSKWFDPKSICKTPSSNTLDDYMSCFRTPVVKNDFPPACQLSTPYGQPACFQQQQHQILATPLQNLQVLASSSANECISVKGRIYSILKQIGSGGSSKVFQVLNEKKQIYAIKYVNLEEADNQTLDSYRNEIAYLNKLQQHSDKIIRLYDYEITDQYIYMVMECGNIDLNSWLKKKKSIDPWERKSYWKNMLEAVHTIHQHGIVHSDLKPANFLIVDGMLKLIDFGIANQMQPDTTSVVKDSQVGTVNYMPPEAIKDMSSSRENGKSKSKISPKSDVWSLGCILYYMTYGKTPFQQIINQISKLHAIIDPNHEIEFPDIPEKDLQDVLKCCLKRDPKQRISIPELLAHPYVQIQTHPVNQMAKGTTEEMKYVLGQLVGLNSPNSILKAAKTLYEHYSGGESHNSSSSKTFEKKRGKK
Experimental: In order to evaluate the inhibitory activity of the compounds according to the present invention on LRRK2, LRRK2 (G2019S), DYRK1, CLK1 and TTK kinases, the following experiment was performed.
Example compounds were reacted with the purified human TTK (Signalchem #T20-10G) enzyme to evaluate the enzyme inhibitory ability as follows. The reaction buffer was used as the composition of 40 mM Tris-HCl pH7.4, 20 mM MgCl2, 0.1 mg/ml BSA (5× kinase buffer, Signalchem #K03-09) and 50 μM DTT (Signalchem #D86-09B), and the reaction of all test materials was performed on the reaction buffer. The compound was diluted with 10 mM DMSO stock in […] by a serial dilution method, and the enzyme activity was measured at the final compound concentrations of 1, 0.333333, 0.111111, 0.037037, 0.012346, 0.004115, 0.001372, 0.000457, 0.000152, 0.000051 and 0.000017 μM. In the test, the human TTK (7.5 ng) enzyme was reacted with the purified ATP (5 μM, Promega #V6930) and an MBP enzyme substrate (0.2 μg, Signalchem M42-51N) at 25° C. for 4 hours, and then the enzyme activity was identified using the in vitro ADP-Glo™ kinase assay (Promega #V6930). The enzyme activity reaction liquid, an ADP-Glo reaction liquid and an enzyme potency detection solution were reacted in a ratio of 2:2:1, and the degree of inhibition of enzyme activity was measured by luminescence. The degree of inhibition of enzyme activity according to the treatment concentrations of the respective compounds was calculated based on the luminescence degree of the enzyme activity of a solvent control group that was not treated with the compound, where the concentration of each compound to inhibit enzyme activity inhibition by 50% was determined as an IC50 (nM) value and obtained using Prism (Version 8.2, GraphPad) software.
as §3

Sequence of LRRK2 (Q5S007 970-2527 limits assumed): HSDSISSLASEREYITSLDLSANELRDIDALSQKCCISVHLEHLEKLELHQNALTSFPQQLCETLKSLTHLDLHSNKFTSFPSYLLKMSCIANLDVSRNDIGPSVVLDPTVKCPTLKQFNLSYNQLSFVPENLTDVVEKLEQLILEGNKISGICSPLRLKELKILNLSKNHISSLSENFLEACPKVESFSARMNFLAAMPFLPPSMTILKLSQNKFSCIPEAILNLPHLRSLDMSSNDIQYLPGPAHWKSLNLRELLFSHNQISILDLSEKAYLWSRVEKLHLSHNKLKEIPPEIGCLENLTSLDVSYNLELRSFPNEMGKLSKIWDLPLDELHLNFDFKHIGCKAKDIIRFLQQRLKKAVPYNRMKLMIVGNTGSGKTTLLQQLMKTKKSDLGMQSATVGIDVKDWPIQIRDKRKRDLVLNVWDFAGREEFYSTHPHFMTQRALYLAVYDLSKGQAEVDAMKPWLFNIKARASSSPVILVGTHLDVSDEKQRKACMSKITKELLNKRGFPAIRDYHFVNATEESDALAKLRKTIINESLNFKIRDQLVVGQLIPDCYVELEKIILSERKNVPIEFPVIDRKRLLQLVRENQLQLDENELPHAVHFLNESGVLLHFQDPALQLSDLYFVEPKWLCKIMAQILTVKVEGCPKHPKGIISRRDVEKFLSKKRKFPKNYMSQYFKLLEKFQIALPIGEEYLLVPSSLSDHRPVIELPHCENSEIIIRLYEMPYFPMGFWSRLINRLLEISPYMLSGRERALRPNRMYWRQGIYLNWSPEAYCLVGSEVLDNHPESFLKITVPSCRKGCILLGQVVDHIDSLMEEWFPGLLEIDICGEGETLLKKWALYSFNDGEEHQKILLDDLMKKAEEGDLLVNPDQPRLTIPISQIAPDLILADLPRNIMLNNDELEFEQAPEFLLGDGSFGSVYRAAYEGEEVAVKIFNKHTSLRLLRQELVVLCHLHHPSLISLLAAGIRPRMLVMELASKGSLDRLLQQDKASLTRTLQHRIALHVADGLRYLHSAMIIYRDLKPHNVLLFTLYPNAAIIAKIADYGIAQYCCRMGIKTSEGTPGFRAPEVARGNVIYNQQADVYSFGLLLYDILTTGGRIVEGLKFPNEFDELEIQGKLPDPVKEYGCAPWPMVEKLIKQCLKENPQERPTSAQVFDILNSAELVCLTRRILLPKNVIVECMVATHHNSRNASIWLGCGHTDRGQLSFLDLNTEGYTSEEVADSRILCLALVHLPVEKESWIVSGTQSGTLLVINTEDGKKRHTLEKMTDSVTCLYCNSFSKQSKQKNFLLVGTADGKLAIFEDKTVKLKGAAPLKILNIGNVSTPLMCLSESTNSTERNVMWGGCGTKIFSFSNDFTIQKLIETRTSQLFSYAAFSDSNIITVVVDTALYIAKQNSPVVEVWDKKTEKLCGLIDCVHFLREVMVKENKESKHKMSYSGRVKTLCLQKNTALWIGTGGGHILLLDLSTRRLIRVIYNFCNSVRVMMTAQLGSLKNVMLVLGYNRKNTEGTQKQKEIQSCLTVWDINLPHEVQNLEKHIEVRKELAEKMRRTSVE
T4 sequence (P49759 129-484 limits assumed): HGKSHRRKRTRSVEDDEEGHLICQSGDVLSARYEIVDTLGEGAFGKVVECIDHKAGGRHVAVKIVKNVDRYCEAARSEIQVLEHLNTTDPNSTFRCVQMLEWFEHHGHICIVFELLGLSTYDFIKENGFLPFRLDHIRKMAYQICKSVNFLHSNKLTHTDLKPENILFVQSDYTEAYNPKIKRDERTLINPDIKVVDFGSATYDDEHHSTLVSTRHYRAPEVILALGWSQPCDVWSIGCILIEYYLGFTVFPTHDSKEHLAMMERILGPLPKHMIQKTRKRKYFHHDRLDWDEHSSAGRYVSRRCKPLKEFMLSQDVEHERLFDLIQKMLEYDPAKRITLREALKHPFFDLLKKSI
Sequence of LRRK2 (G2019S) (Q5S007 970-2527 G2019S limits assumed): as the sequence (Q5S007 970-2527 limits assumed) above, with G1050S counted along it
T3 sequence (P49759 whole entry, stated change not applied): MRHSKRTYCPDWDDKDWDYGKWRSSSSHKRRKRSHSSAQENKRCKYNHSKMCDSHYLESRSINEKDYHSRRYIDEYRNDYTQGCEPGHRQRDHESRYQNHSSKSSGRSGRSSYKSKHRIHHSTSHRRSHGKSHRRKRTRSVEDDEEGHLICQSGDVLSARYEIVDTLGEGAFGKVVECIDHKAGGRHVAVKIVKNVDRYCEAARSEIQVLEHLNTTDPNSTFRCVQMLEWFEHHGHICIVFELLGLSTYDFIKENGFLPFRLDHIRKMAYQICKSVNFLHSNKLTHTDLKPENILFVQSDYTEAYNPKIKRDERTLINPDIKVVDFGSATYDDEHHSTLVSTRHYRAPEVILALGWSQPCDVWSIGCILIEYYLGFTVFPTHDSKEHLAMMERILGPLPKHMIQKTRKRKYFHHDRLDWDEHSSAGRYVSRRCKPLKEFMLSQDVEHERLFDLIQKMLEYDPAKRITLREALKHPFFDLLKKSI
T2 sequence (Q5S007 whole entry G2019S): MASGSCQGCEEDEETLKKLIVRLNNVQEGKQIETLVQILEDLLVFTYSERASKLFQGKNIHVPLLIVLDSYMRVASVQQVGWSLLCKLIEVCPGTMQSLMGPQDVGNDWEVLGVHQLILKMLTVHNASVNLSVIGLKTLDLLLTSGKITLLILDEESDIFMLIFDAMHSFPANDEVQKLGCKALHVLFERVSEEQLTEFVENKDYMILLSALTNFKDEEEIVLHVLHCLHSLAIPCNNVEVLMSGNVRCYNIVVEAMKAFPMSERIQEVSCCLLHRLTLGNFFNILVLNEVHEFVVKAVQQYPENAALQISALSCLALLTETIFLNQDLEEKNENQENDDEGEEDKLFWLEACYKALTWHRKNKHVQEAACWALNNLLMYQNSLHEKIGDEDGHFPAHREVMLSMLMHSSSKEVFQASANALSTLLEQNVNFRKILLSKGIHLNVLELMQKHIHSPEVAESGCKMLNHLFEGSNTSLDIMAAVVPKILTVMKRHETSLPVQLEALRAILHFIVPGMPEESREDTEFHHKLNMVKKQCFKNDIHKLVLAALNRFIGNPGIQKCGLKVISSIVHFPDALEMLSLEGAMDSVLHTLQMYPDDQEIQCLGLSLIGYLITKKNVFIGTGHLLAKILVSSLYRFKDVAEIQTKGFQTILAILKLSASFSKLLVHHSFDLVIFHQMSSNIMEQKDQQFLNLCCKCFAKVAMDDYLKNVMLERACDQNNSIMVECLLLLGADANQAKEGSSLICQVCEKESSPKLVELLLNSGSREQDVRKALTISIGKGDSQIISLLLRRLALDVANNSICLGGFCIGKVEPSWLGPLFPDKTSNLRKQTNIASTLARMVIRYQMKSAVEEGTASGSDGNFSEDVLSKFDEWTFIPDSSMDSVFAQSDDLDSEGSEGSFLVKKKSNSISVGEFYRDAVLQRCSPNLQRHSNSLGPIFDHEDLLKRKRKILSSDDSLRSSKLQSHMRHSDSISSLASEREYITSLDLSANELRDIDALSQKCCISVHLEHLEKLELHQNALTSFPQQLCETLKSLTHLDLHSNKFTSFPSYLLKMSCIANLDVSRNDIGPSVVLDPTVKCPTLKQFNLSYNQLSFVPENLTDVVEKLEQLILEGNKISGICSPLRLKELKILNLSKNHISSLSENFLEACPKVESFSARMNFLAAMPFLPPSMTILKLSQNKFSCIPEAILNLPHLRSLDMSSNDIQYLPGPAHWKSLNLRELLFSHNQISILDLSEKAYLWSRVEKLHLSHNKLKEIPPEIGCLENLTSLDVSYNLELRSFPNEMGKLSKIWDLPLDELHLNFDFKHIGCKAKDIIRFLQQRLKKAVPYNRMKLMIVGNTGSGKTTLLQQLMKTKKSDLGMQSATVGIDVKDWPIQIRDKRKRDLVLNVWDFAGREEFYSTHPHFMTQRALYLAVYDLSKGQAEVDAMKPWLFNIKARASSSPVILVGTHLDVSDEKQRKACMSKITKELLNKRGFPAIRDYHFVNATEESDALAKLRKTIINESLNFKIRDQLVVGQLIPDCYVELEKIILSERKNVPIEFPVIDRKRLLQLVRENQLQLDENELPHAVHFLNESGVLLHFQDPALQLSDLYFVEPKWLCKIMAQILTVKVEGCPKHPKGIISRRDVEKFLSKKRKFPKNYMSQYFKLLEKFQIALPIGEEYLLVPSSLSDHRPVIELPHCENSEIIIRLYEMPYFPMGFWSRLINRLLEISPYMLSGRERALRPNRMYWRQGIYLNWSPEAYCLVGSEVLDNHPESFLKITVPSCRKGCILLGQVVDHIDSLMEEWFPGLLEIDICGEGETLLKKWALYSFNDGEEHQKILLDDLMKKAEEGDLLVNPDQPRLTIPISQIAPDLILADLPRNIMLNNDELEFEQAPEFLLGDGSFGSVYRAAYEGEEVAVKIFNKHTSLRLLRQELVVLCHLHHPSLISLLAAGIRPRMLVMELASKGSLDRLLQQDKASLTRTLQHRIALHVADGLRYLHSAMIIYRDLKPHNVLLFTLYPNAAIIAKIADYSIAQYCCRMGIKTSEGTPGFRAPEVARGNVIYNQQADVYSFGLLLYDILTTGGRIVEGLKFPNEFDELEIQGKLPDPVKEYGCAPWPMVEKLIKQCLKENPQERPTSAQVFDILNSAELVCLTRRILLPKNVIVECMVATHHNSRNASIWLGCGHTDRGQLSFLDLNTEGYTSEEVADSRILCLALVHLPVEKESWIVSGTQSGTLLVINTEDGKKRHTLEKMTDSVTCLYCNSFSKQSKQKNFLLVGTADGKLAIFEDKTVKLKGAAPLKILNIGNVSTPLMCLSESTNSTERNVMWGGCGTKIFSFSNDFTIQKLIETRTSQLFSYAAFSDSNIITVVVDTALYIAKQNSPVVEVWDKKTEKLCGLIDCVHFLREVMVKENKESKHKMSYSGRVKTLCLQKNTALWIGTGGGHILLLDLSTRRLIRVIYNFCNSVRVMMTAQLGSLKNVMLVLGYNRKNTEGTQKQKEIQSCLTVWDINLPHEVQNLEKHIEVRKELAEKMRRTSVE

IC50 [1]	IC50 [2]	IC50 [3]	GI50 (MDA-MB-231 cell line)	IC50 (LRRK2 (G2019S))	GI50 (SHP-77)	IC50 (LRRK2)	IC50 (human GST-CLK1 (129-end))	IC50 (TTK)	Compound	inhibition at 0.25 µM (human DYRK1A and Tau)	inhibition at 0.5 µM (human DYRK1A and Tau)	inhibition at 1 µM (human DYRK1A and Tau)
< 100 nM	< 100 nM	< 100 nM	301 to 1000 nM	301 to 1000 nM	301 to 1000 nM				COc1cc(S(=O)(=O)N2CCC(N3C[C@@H]4C[C@H]3CO4)CC2)ccc1Nc1cc(C2CC2)c2c(C(F)(F)F)c[nH]c2n1 [Example 240, N-(4-((4-((1S,4S)-2-oxa-5-azabicyclo[2.2.1]heptan-5-yl)piperidin-1-yl)sulfonyl)-2-methoxyphenyl)-4-cyclopropyl-3-(trifluoromethyl)-1H-pyrrolo[2,3-b]pyridin-6-amine]	8.9%	16.5%	36.3%
< 100 nM	< 100 nM	< 100 nM	301 to 1000 nM	301 to 1000 nM	301 to 1000 nM				COc1cc(S(=O)(=O)N2CCC(N3C[C@H]4C[C@@H]3CO4)CC2)ccc1Nc1cc(C2CC2)c2c(C(F)(F)F)c[nH]c2n1 [Example 239, N-(4-((4-((1R,4R)-2-oxa-5-azabicyclo [2.2.1]heptan-5-yl)piperidin-1-yl)sulfonyl)-2-methoxyphenyl)-4-cyclopropyl-3-(trifluoromethyl)-1H-pyrrolo[2,3-b]pyridin-6-amine]	22%	50.9%	71.2%
< 100 nM			301 to 1000 nM			101 to 300 nM	< 100 nM		COc1cc(P2(=O)CCN(C3COC3)CC2)ccc1Nc1cc(C2CC2)c2c(C(F)(F)F)c[nH]c2n1 [Example 47, 4-(4-((4-cyclopropyl-3-(trifluoromethyl)-1H-pyrrolo[2,3-b]pyridin-6-yl)amino)-3-methoxyphenyl)-1-(oxetan-3-yl)-1,4-azaphosphinane 4-oxide]	3.7%	15%	22.4%
< 100 nM							301 to 1000 nM	< 100 nM	O=C(c1ccc(Nc2cc(C3CC3)c3c(C(F)(F)F)c[nH]c3n2)c2c1OCCO2)N1CCN(C2COC2)CC1 [Example 101, (8-((4-cyclopropyl-3-(trifluoromethyl)-1H-pyrrolo[2,3-b]pyridin-6-yl)amino)-2,3-dihydrobenzo[b] [1,4]dioxin-5-yl)(4-(oxetan-3-yl)piperazin-1-yl)methanone]	9.9%	11.2%	20.7%
< 100 nM				301 to 1000 nM		301 to 1000 nM	301 to 1000 nM		COc1cc(S(C)(=O)=O)ccc1Nc1cc(C2CC2)c2c(C(F)(F)F)c[nH]c2n1 [Example 224, 4-cyclopropyl-N-(2-methoxy-4-(methylsulfonyl)phenyl)-3-(trifluoromethyl)-1H-pyrrolo[2,3-b]pyridin-6-amine]			
< 100 nM			< 50 nM	< 100 nM	51 to 100 nM	< 100 nM	< 100 nM		COCCNc1cc(Nc2ccc(S(=O)(=O)N3CCC(N4CCOCC4)CC3)cc2OC)nc2[nH]cc(C#N)c12 [Example 140, 6-((2-methoxy-4-((4-morpholinopiperidin-1-yl)sulfonyl)phenyl)amino)-4-((2-methoxyethyl)amino)-1H-pyrrolo[2,3-b]pyridine-3-carbonitrile]			
